Results as given in ChEMBL document CHEMBL4699570, “Design, synthesis and biological evaluation of novel c-Met/HDAC dual inhibitors” (Bioorg Med Chem Lett, 2020).

Columns and labels:
MCF7 = assay: Antiproliferative against human MCF-7 cells assessed as reduction in cell viability by MTT assay; type: functional, cell-based
A549 = assay: Antiproliferative against human A549 cells assessed as reduction in cell viability by MTT assay; type: functional, cell-based
Histone deacetylase 1 [1] = biological target: T1, Histone deacetylase 1 (Homo sapiens, UniProt Q13547); details: dose 100.0 nM
Description: Inhibition of HDAC1 (unknown origin) at 100 nM relative to control

[2] = biological target: T2, Hepatocyte growth factor receptor (Homo sapiens, UniProt P08581); details: dose 100.0 nM
Description: Inhibition of c-MET (unknown origin) at 100 nM relative to control

Histone deacetylase 1 [3] = biological target: T1, Histone deacetylase 1; assay: Inhibition of HDAC1 (unknown origin)
[4] = biological target: T2, Hepatocyte growth factor receptor; assay: Inhibition of c-MET (unknown origin)

T1 sequence (Q13547 whole entry): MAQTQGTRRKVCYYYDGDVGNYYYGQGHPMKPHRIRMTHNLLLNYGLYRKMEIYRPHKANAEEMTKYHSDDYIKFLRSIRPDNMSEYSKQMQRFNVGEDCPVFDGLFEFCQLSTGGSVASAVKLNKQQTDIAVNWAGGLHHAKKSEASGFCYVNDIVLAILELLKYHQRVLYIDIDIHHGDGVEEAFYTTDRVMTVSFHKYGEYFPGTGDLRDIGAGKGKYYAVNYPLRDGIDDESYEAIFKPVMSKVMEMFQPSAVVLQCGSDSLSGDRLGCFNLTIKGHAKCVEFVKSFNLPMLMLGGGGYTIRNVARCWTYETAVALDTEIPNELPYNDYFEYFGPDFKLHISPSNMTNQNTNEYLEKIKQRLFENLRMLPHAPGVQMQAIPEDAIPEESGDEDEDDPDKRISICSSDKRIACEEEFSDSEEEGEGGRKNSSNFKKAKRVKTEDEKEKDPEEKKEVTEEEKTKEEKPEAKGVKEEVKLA
T2 sequence (P08581 whole entry): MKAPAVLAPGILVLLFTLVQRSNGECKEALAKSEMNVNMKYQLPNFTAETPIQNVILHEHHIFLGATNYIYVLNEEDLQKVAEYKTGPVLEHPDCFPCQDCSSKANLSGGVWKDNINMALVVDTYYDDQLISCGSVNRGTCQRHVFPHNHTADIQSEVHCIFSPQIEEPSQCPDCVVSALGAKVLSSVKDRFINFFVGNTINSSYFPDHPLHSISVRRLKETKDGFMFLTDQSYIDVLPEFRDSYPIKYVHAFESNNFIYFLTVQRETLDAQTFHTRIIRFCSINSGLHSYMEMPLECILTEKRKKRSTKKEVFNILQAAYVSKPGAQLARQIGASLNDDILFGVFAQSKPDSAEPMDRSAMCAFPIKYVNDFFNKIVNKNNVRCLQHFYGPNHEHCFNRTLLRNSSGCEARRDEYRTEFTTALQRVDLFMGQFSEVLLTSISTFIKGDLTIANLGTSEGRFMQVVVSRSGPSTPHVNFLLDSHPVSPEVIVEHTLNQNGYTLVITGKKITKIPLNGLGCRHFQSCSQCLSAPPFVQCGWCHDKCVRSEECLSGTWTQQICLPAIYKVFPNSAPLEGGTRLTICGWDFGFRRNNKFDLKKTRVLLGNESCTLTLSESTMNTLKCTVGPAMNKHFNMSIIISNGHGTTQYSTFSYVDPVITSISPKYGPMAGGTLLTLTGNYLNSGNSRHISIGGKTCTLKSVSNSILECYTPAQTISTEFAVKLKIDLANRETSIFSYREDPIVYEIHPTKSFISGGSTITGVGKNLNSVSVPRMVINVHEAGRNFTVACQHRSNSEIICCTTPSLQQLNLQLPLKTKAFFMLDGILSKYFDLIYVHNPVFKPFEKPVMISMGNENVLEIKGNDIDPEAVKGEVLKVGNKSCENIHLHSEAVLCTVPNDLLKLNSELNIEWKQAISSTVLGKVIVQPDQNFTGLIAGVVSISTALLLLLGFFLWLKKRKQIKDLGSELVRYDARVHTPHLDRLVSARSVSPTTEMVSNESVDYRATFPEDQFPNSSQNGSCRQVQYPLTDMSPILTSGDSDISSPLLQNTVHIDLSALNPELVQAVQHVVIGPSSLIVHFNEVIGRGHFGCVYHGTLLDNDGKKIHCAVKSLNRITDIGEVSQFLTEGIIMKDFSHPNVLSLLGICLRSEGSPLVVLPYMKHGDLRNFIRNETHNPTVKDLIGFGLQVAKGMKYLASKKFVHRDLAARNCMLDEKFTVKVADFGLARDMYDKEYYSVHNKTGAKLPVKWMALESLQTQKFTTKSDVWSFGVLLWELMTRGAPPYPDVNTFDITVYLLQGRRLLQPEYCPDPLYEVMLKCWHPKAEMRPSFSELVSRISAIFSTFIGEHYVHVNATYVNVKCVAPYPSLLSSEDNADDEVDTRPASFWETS

| IC50 (MCF7) [nM] | IC50 (A549) [µM] | inhibition (Histone deacetylase 1 [1]) [%] | inhibition [2] [%] | IC50 (Histone deacetylase 1 [3]) [nM] | IC50 [4] [nM] | SMILES |
| --- | --- | --- | --- | --- | --- | --- |
| 560 | 0.91 | 38.6 | – | – | – | COc1cc2c(Oc3ccc(NC(=O)C4(C(=O)Nc5ccc(F)cc5)CC4)cc3F)ccnc2cc1OCCCN1CCOCC1 [FORETINIB] |
| 3430 | 5.49 | 26.4 | 44.7 | – | – | COc1cc2c(Oc3ccc(NC(=O)Nc4ccc(C)cc4C)cc3)ccnc2cc1OCCCCCCC(=O)NO |
| 3200 | 3.13 | 11.7 | 29.8 | – | – | COc1cc2c(Oc3ccc(NC(=O)Nc4ccc(OC(F)(F)F)cc4)cc3)ccnc2cc1OCCCCCCC(=O)NO |
| 3600 | 2.42 | 28.7 | 81.4 | – | – | COc1cc2c(Oc3ccc(NC(=O)NNC(=O)c4ccccc4F)cc3)ccnc2cc1OCCCCCCC(=O)NO |
| 5150 | 5.02 | 40.9 | 94.8 | – | – | COc1cc2c(Oc3ccc(NC(=O)Nc4ccc(Cl)c(C(F)(F)F)c4)cc3)ccnc2cc1OCCCCCCC(=O)NO |
| 1240 | 2.01 | 66.6 | 25.7 | – | – | COc1cc2c(Oc3ccc(NC(=O)Nc4cccc(C)c4)cc3)ccnc2cc1OCCCCCCC(=O)NO |
| 2780 | 1.91 | 45.2 | 30.4 | – | – | COc1cc2c(Oc3ccc(NC(=O)Nc4ccccc4Cl)cc3)ccnc2cc1OCCCCCCC(=O)NO |
| 2450 | 2.82 | 34.4 | 38.5 | – | – | COc1cc2c(Oc3ccc(NC(=O)NNC(=O)c4ccccc4)cc3)ccnc2cc1OCCCCCCC(=O)NO |
| 610 | 3.7 | – | 75.9 | – | – | COc1cc2c(Oc3ccc(NC(=O)N/N=C/c4ccccc4)cc3)ccnc2cc1OCCCCCCC(=O)NO |
| 1080 | 5.28 | 76.6 | 28.6 | – | – | COc1cc2c(Oc3ccc(NC(=O)Nc4ccccc4C(F)(F)F)cc3)ccnc2cc1OCCCCCCC(=O)NO |
| 500 | 0.97 | 28.1 | 93.1 | 148 | 41.2 | COc1cc2c(Oc3ccc(NC(=O)Nc4ccc(C(F)(F)F)cc4Cl)cc3)ccnc2cc1OCCCCCCC(=O)NO |
| 6280 | 16.2 | – | 31.9 | – | – | COc1ccccc1NC(=O)Nc1ccc(Oc2ccnc3cc(OCCCCCCC(=O)NO)c(OC)cc23)cc1 |
| 1610 | 7.78 | 10.4 | 81.5 | – | – | COc1cc2c(Oc3ccc(NC(=O)N/N=C/c4ccccc4F)cc3)ccnc2cc1OCCCCCCC(=O)NO |
| 4120 | 9.04 | 88 | 14.3 | – | – | COc1cc2c(Oc3ccc(NC(=O)NCCc4ccccc4)cc3)ccnc2cc1OCCCCCCC(=O)NO |
| 1040 | 1.65 | 23.1 | 48 | 75 | 17 | COc1cc2c(Oc3ccc(NC(=O)Nc4ccccc4)cc3)ccnc2cc1OCCCCCCC(=O)NO |
| 660 | 0.87 | 32.1 | 95.5 | 131 | 39.2 | COc1cc2c(Oc3ccc(NC(=O)Nc4ccccc4F)cc3)ccnc2cc1OCCCCCCC(=O)NO |
| 5830 | 8.19 | 67.6 | 29.9 | – | – | COc1cc2c(Oc3ccc(NC(=O)NNC(=O)c4cccc(C)c4)cc3)ccnc2cc1OCCCCCCC(=O)NO |
| 1360 | 4.92 | 56.1 | 24.2 | – | – | COc1cc2c(Oc3ccc(NC(=O)N/N=C/c4ccc(F)cc4)cc3)ccnc2cc1OCCCCCCC(=O)NO |
| 5400 | 7.21 | 20.9 | – | – | – | COc1cc2nccc(Oc3ccc(NC(=O)C4(C(=O)Nc5ccc(F)cc5)CC4)cc3)c2cc1OC [CABOZANTINIB] |
| 600 | 0.85 | 14.1 | 38 | 45.2 | 21.4 | COc1cc2c(Oc3ccc(NC(=O)NC4CCCCC4)cc3)ccnc2cc1OCCCCCCC(=O)NO |
